PMC6804243, “Small-Molecule Inhibition of UBE2T/FANCL-Mediated Ubiquitylation in the Fanconi Anemia Pathway” (ACS Chemical Biology, 2019)
pIC50: −log10 of the molar value. “Also recorded” adds a separate entry of the source. Where two headings read alike, the source gives them in different places.

Experiments:
[1] = biological target: T1, UBE2T/FANCLRING (ubiquitylation of GST-FANCLRING) (Homo sapiens, UniProt Q9NW38); test: biochemical
T1 sequence (Q9NW38 275-375 limits assumed): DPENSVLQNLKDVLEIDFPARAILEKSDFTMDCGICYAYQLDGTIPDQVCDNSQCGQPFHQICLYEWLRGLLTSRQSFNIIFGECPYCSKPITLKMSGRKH
Text: To identify small-molecule inhibitors of the FA pathway, we developed a high-throughput screen (HTS) compatible assay based on the FA ubiquitylation cascade (see Figure 1a, as well as Figure S1 in the Supporting Information). Given the complexity of the full FA ubiquitylation cascade, we constructed a simplified ubiquitylation reaction that would be robust for HTS purposes yet still provide many relevant protein species for small molecules to interact with. The recombinant protein assay developed used homogeneous time-resolved fluorescence (HTRF) and contained Cy5-labeled ubiquitin, the E1 enzyme UBE1, the E2 enzyme UBE2T, and the RING domain (residues 275–375) of the E3 FANCL (FANCLRING). FANCLRING was used as a surrogate substrate for ubiquitylation in the absence of the FA core and FANCD2/FANCI complexes.
Figure 1 Screening for inhibitors of the FA pathway. (a) Schematic of the HTRF ubiquitylation assay. Ubiquitylation of GST-tagged E3 (FANCLRING) by the E2 (UBE2T) places Cy5-labeled ubiquitin in close proximity to the anti-GST Tb cryptate. Excitation of the Tb cryptate donor results in FRET to the Cy5 acceptor. Simultaneous monitoring of the donor emission (620 nm) and acceptor emission (665 nm) allows for determination of the 665/620 ratio. (b) HTRF screen results showing average inhibition (n = 2) produced by compounds at 20 μM (in-house diversity library; 10 111 compounds) and 10 μM (Selleckchem epigenetic library; 119 compounds). Numbers given in parentheses represent the number of compounds per inhibition threshold.
(§1) Purified protein was concentrated using a Vivaspin-6 concentrator with a 10 kDa MW cut-off (Vivascience) and flash-frozen in small aliquots for storage at […]
(§2) Cy5 labelling of ubiquitin. To a 5 mg/mL solution of recombinant human ubiquitin (Boston Biochem) in 0.1 M NaHCO3 pH 8.3, was added a 4-fold molar excess of Cyanine5 NHS ester (Lumiprobe). The reaction was incubated at 23 °C for 4 hours in the dark. The protein was separated from unreacted dye by passage through a PD-10 desalting column (GE Healthcare) equilibrated with PBS. Purified protein was concentrated using a Vivaspin-6 concentrator with a 3 kDa MW cut-off (Vivascience) and flash-frozen in small aliquots for storage […]
(§3) Homogeneous Time-Resolved Fluorescence (HTRF) Assay. GST-FANCLRING (200 nM) was incubated with anti-GST Tb (CisBio, #61GSTTL) (2.5 ng final) at room temperature for 30 minutes in assay buffer (50 mM Tris-HCl pH 8.0, 1 mM TCEP, 5 mM MgCl2, 0.005% Tween-20). Meanwhile, 10 μL of UBE2T in assay buffer (or assay buffer alone for no enzyme controls) was incubated in a white 384-well plate (Corning) with 20 nL DMSO or compound in DMSO. After 30 minutes, the GST-RINGRING solution was added to an equal volume solution containing His-UBE1 (Boston Biochem) (16 nM), Cy5-ubiquitin (400 nM), ATP (0.8 mM) in assay buffer. 10 μL of this solution was immediately added to each well of the 384 -well plate containing UBE2T or buffer. F inal concentrations: His -UBE1 (4 nM), UBE2T (6 nM), GST -RINGRING (50 nM), Cy5-ubiquitin (100 nM), ATP (0.2 mM), compound (10 or 20 μM) in 0.1 %
(§4) (v/v) DMSO. After a 10 minute incubation at 23 °C, 5 µL of a 50 mM EDTA solution were added to each well to stop the reaction. Signal was measured at λEx 340 nm and λEm 665 nm and 620 nm using a PHERAstar FS plate reader
(§5) (BMG Labtech). A ratio was calculated as [λEm(665)/λEm(620)] × 104 for each well and this was used to determine the percent inhibition for test compounds.
Gel-based ubiquitylation assays. Assays were carried out in a total volume of 10 µL containing 20 nM His6-UBE1 (Boston Biochem), 50 nM UBE2T, 250 nM GST-E3 and 500 nM biotinylated ubiquitin (Boston Biochem) in buffer (50

UBE2T / GST-FANCLRING = tested on: T2, UBE2T / GST-FANCLRING; test: Gel-based ubiquitylation assay, E2 = UBE2T, E3 = GST-FANCLRING; format: biochemical; settings: compound 100 μM, 30 min at 37 °C, Western blot
T2 construct: the RING domain (residues 275–375) of the E3 FANCL (FANCLRING); His6 (N); made in house; host or cells: E. coli Rosetta (DE3)

UBE2D1 / GST-FANCLRING = tested on: T3, UBE2D1 / GST-FANCLRING; test: Gel-based ubiquitylation assay, E2 = UBE2D1, E3 = GST-FANCLRING; format: biochemical; settings: 30 min at 37 °C, Western blot
T3 construct: the RING domain (residues 275–375) of the E3 FANCL (FANCLRING); His6 (N); made in house; host or cells: E. coli Rosetta (DE3)
Method: (§6) Figure 2 Gel-based ubiquitylation assays with confirmed HTRF hits. […] Western blots (WB) probed for GST or biotin as labeled. Reactions contained 20 nM His6-UBE1, 50 nM E2, 250 nM GST-E3, 500 nM biotinylated ubiquitin: (a) E2 = UBE2T, E3 = GST-FANCLRING, 30 min of reaction at 37 °C; (b) E2 = UBE2D1, E3 = GST-FANCLRING, 30 min of reaction at 37 °C; and (c) E2 = UBE2D1, E3 = GST-RNF8, 10 min of reaction at 37 °C.
(§7) In order to explore the selectivity of CU1, CU2, CU9, CU10, and CU12, we conducted a counter-screen against other E2 and E3 combinations. Since members of the UBE2D family of E2s are known to ubiquitylate multiple substrates in vitro,[13] a ubiquitylation assay featuring UBE2D1 and GST-FANCLRING was performed. With UBE2D1, multiple ubiquitylated GST-FANCLRING species could be observed (Figure 2b).
as §1, §2, §3, §4, §5
(§8) Gel-based ubiquitylation assays. Assays were carried out in a total volume of 10 µL containing 20 nM His6-UBE1 (Boston Biochem), 50 nM UBE2T, 250 nM GST-E3 and 500 nM biotinylated ubiquitin (Boston Biochem) in buffer (50 […]
(§9) Reaction mixtures were incubated for the indicated time at 37 °C and stopped by the addition of 2X reducing SDS -PAGE sample buffer, separated on NuPAGE Novex 4 –12% Bis/Tris gradient gels (Invitrogen) and visualized by Western blotting using the indicated antibodies (Table S3).
Cell culture. […]

UBE2D1 / GST-RNF8 = tested on: T4, UBE2D1 / GST-RNF8; test: Gel-based ubiquitylation assay, E2 = UBE2D1, E3 = GST-RNF8; format: biochemical; settings: 10 min at 37 °C, Western blot
T4 construct: His6 (N); made in house; host or cells: E. coli Rosetta (DE3)
Method: as §6
A further ubiquitylation assay was performed with an alternative E3, RNF8, which also plays important roles in the DDR.[14] In contrast to GST-FANCLRING, long polyubiquitin chains were attached to GST-RNF8 by UBE2D1 (Figure 2c).
as §1, §2, §3, §4, §5, §8, §9
Cell culture. U2OS cells were cultured at 37 °C in a humidified atmosphere and 5% (v/v) CO2 in Dulbecco's Modified Eagle Medium (DMEM; Sigma-Aldrich) supplemented with 10% (v/v) fetal bovine serum (FBS), 100 units/ml of penicillin, […] of streptomycin and 292 μg/mL L-glutamine.
Cell extract preparation and immunoblotting. U2OS cells were lysed in buffer containing 50 mM Tris-HCl pH 7.5, 2% SDS, 10 mM NEM, cocktail protease inhibitor (Roche) and phosphatase inhibitor cocktail followed by sonication 100 µg of extracts were boiled for 5 mins at 95 °C in 5X loading buffer and loaded onto NuPAGE Novex 4–12% Bis/Tris gradient gels
(Invitrogen), or NuPAGE Novex 3-8% Tris/Acetate gradient gels (Invitrogen) for detection of mUb-FANCD2. After separation the gels were transferred to PVDF and the membranes were blocked with Tris-buffered saline containing 0.1% (v/v) Tween-20 (TBST) and 5% (v/v) bovine serum albumin (BSA) and […]

UBE2T = tested on: T5, UBE2T; test: Gel-based ubiquitylation assay (UBE2T/GST-FANCLRING), blot probed for UBE2T; format: biochemical; settings: compound 100 μM; Western blot probed for UBE2T
T5 construct: His6 (N); made in house; host or cells: E. coli Rosetta (DE3)

UBE1 = tested on: T6, UBE1; test: Gel-based ubiquitylation assay (UBE2T/GST-FANCLRING), autoubiquitylation of UBE1; format: biochemical; settings: compound 100 μM; Western blot probed for biotin
T6 construct: purchased Boston Biochem

UBE2D1 = tested on: T7, UBE2D1; test: Gel-based ubiquitylation assay (UBE2D1/GST-FANCLRING), ubiquitylated UBE2D1 species; format: biochemical; settings: E2 = UBE2D1, E3 = GST-FANCLRING; 30 min at 37 °C
T7 construct: His6 (N); made in house; host or cells: E. coli Rosetta (DE3)
Method: as §6, §7, §1
Cy5 labelling of ubiquitin. […]
Homogeneous Time-Resolved Fluorescence (HTRF) Assay. […]
(v/v) DMSO. […] Signal was measured at λEx 340 nm and λEm 665 nm and 620 nm using a PHERAstar FS plate reader
(BMG Labtech). A ratio was calculated as [λEm(665)/λEm(620)] × 104 for each well and this was used to determine the percent inhibition for test compounds. […]

## O=C(CCc1ccco1)NS(=O)(=O)c1cccc2ncccc12 [CU10]
[1]; library stock, 10-point dose-response, read-out: Primary screen IC50
  pIC50: 4.96
[1]; ligand efficiency = 1.4(–logIC50)/HAC
  LE: 0.35
[1]; printed beside the structures in Figure S3, read-out: IC50 (Figure S3)
  pIC50: 5.68
[1]; read-out: Primary screen % Inhibition (20 M)
  inhibition at 20 µM: 93.8%
UBE2T / GST-FANCLRING
  ubiquitylation of GST-FANCLRING (mUb-GST-FANCLRING band): no ubiquitylation of FANCLRING was observed
UBE2D1 / GST-FANCLRING
  ubiquitylation of GST-FANCLRING: essentially abolished the ubiquitylation of GST-FANCLRING
UBE2D1 / GST-RNF8
  ubiquitylation of GST-RNF8 and UBE2D1: appeared to inhibit the ubiquitylation of all species in the assay
UBE2T
  ubiquitylation of UBE2T: prevented the ubiquitylation of UBE2T; also recorded: essentially completely inhibited
UBE1
  autoubiquitylation of UBE1: somewhat impaired the autoubiquitylation of UBE1
UBE2D1
  formation of ubiquitylated UBE2D1 species: prevented the formation of any ubiquitylated UBE2D1 species
